The results in this text go back to publication PMC8480782, “Efficient Dimerization Disruption of Leishmania infantum Trypanothione Reductase by Triazole-phenyl-thiazoles” (Journal of Medicinal Chemistry, 2021).

The test system of assay [1] is L. infantum axenic amastigotes. Briefly: Leishmanicidal activity on axenic amastigotes (PI exclusion, flow cytometry). In kind it is cell-based, Leishmania infantum. The note with it: for EC50: Leishmania infantum, axenic amastigotes, 24 h at 37 °C, read-out: EC50 amastigotes. The procedure:
(§1) L. infantum promastigotes (MCAN/ES/89/IPZ229/1/89) were grown in Roswell Park Memorial Institute (RPMI)-1640 medium (Sigma-Aldrich, St. Louis, MO) supplemented with 10% heat-inactivated fetal calf serum (FCS), antibiotics, and 25 mM HEPES (pH 7.2) at 26 °C. L. infantum axenic amastigotes (MCAN/ES/89/IPZ229/1/89) were grown in M199 medium (Invitrogen, Leiden, The Netherlands) supplemented with 10% heat-inactivated FCS, 1 g/L β-alanine, 100 mg/L L-asparagine, 200 mg/L sucrose, 50 mg/L sodium pyruvate, 320 mg/L malic acid, 40 mg/L fumaric acid, 70 mg/L succinic acid, 200 mg/L α-ketoglutaric acid, 300 mg/L citric acid, 1.1 g/L sodium bicarbonate, 5 g/L morpholineethanesulfonic acid (MES), 0.4 mg/L hemin, and 10 mg/L gentamicine, pH 5.4, at 37 °C.
Axenization was performed by diluting 0.5 mL of a 7-day stationary phase culture of L. infantum promastigotes (2–3 × 10^7 parasites/mL) in 4.5 mL of amastigotes medium and incubating the culture at 37 °C for 2 or 3 days. L. infantum axenic amastigotes apparition was followed by phase-contrast microscopy using an Eclipse Ti inverted microscope (Nikon, Tokyo, Japan).
(§2) Drug treatment of L. infantum promastigotes was performed during the logarithmic growth phase at a concentration of 2 × 10^6 parasites/mL at 26 °C for 24 h. […] EC50 was evaluated by flow cytometry by the propidium iodide (PI) exclusion method. After selection of the parasite population based on their forward scatter (FSC) and side scatter (SSC) values, live and dead parasite cells were identified by their permeability to PI. All of the assays were conducted in triplicate in at least three independent experiments. Data were analyzed using a nonlinear regression model with GraFit 6 software (Erithacus, Horley, Surrey, U.K.).
(In general: In flow cytometry, cells or beads pass a laser one at a time.)

The test system of another assay is HepG2 cells. Kind of assay: Cellular toxicity, crystal violet assay. In kind it is cell-based. The note with it: Homo sapiens, HepG2; 24 h, crystal violet method; read-out: EC50 HepG2. The procedure:
Liver hepatocellular carcinoma HepG2 cells were grown in Dulbecco’s modified Eagle’s medium (DMEM) (Sigma-Aldrich, St. Louis, MO) with 10% heat-inactivated FCS, antibiotics, and 10 mM HEPES.
Drug treatment of liver hepatocellular carcinoma HepG2 cells was performed at a concentration of 10^5 cells/mL at 37 °C and 5% CO2 for 24 h. EC50 was evaluated by the crystal violet assay. Briefly, cells were washed with phosphate-buffered saline (PBS) and stained with 200 μL of crystal violet solution (0.2% crystal violet, 2% ethanol) for 10 min at room temperature. Next, the plates were washed twice with tap water and allowed to dry. The stained cells were solubilized with 400 μL of 1% sodium dodecyl sulfate (SDS), and the color intensity was quantified at 570 nm using an EnSpire Multimode Plate Reader (PerkinElmer, Waltham, MA). All of the assays were conducted in triplicate in at least three independent experiments. Data were analyzed using a nonlinear regression model with GraFit 6 software (Erithacus, Horley, Surrey, U.K.).

In a further assay the target is T1, TcoTryR (Trypanosoma congolense, UniProt P13110).
T1 construct: HIS; made in house; host or cells: E. coli
T1 sequence (P13110 whole entry): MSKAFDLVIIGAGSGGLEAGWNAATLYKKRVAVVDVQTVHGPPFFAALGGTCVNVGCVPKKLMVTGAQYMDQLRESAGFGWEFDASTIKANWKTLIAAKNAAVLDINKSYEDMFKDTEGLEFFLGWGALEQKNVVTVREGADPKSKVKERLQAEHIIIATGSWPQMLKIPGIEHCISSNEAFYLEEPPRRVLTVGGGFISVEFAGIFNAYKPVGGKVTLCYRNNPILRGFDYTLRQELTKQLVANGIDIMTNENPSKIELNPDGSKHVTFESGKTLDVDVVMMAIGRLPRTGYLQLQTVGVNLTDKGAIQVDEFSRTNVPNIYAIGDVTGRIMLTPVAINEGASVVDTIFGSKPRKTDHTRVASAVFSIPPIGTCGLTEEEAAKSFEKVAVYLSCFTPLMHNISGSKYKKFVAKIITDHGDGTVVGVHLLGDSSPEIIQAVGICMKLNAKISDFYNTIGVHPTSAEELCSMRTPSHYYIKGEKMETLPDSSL
Kind of assay: TryR oxidoreductase activity, DTNB-coupled assay (TcoTryR). The class given is biochemical. From the text:
(§3) The DNA coding sequences for Homo sapiens GR, T. brucei TryR, and T. congolense TryR were polymerase chain reaction (PCR)-amplified and cloned in the pRSETA plasmid. The DNA coding for hGR (transcript variant 1; NCBI Reference Sequence: NM_000637.5) was purchased from GeneScript. Genomic DNA from T. congolense parasites was kindly provided by Dr. Stefan Magez (University of Vrije, Brussels). Genomic DNA from the T. brucei S16 cell line was kindly provided by José M. Pérez-Victoria. Instituto de Parasitología y Biomedicina “López—Neyra” CSIC. HIS-tagged recombinant T. brucei and T. congolense TryRs (TbTryR and TcoTryR, respectively) were purified from E. coli as already explained for LiTryR.
(§4) TryR oxidoreductase activity was determined spectrophotometrically using a modified version of the DTNB-coupled assay described by Hamilton et al.[52] Briefly, reactions were carried out at 26 °C in 250 μL of N-(2-hydroxyethyl)piperazine-N′-ethanesulfonic acid (HEPES) buffer (pH 7.5, 40 mM) containing ethylenediaminetetraacetic acid (EDTA) (1 mM), NADP^+ (30 μM), DTNB (25 μM), TS2 (1 μM), NADPH (150 μM), glycerol (0.02%), DMSO (1.75%), and recombinant TryR (7 nM). […] Reactions were started by addition of a mixture of NADPH and TS2.
(§5) TryR oxidoreductase activity was monitored at 26 °C by an increase in absorbance at 412 nm in an EnSpire Multimode Plate Reader (PerkinElmer, Waltham, MA). […] (TNB) concentration was obtained by multiplying the absorbance values by 100 (50 μM TNB generates 0.5 arbitrary units of absorbance at 412 nm). In this DTNB-coupled assay, one molecule of T(SH)2 reduces one molecule of DTNB, producing two TNB molecules. All of the assays were conducted in at least three independent experiments. Data were analyzed using a nonlinear regression model with GraFit 6 software (Erithacus, Horley, Surrey, U.K.).

Assay [2] has as its system L. infantum intracellular amastigotes. Kind of assay: Leishmanicidal activity in amastigote-infected THP-1 monocyte-derived macrophages. The class given is cell-based, Leishmania infantum. The procedure:
(§6) THP-1 monocytes were seeded in a 48-well plate at a concentration of 5 × 10^5 cells/mL (250 μL/well) in RPMI complete medium supplemented with phorbol 12-myristate 13-acetate (PMA) (100 ng/mL). Differentiation of THP-1 monocytes to macrophages was allowed for 24 h at 37 °C and 5% CO2. THP-1-derived macrophages were infected with GFP-expressing axenic amastigotes at 5 × 10^6 parasites/mL in RPMI complete medium for 24 h (250 μL/well). Extracellular amastigotes were washed twice with PBS. The remaining extracellular parasites were challenged for 24 h with THP-1 medium supplemented with 10% horse serum (Gibco) instead of FCS. Cells were washed twice with PBS, and treatments were performed in 250 μL of fresh RPMI medium supplemented with 10% horse serum for 72 h at 37 °C and 5% CO2. Afterward, treatments were removed by two PBS washes. Lysis of infected cells was performed with 120 μL of SDS 0.005% (w/v) in PBS. After a 30 min incubation at 37 °C, lysis was stopped by adding RPMI complete medium with PI at 20 μg/mL (120 μL/well). The lysates were transferred to a 96-well plate (200 μL/well), and the GFP^+ amastigotes extracted from the infected cells were acquired by a Beckman Coulter FC500 flow cytometer. Each sample (100 μL) was acquired for 20 s.
The relative number of GFP^+ intracellular amastigotes per cell in each sample was estimated after the division of the total number of GFP+ amastigotes by the LDH activity value of the sample. Results were normalized to the vehicle-treated controls. EC50 values of intracellular amastigotes were calculated using a nonlinear regression model with GraFit 6 software (Erithacus, Horley, Surrey, U.K.). All of the assays were conducted in at least three independent experiments.

The target in another assay is T2, TbTryR (Trypanosoma brucei brucei, UniProt P39051).
T2 construct: HIS; made in house; host or cells: E. coli
T2 sequence (P39051 whole entry): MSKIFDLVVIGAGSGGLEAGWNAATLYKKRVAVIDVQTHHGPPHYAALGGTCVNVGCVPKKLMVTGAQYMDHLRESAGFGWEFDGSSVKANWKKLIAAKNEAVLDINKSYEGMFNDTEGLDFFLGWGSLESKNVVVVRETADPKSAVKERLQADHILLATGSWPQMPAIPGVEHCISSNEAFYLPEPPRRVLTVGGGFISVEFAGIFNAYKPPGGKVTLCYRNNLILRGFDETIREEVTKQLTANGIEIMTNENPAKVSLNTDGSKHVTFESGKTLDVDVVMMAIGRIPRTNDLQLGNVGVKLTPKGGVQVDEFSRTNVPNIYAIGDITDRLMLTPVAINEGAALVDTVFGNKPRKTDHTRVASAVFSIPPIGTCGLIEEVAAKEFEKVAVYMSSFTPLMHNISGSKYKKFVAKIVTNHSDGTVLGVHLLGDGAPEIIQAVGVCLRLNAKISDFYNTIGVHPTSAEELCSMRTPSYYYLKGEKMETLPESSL
Kind of assay: TryR oxidoreductase activity, DTNB-coupled assay (TbTryR). The class given is biochemical. The note with it: read-out: IC50, oxidoreductase activity of TbTryR.
From the text: as §3, §4, §5

Assay [3] relates to L. infantum promastigotes. Briefly: Leishmanicidal activity on promastigotes (PI exclusion, flow cytometry). In kind it is cell-based, Leishmania infantum. The following applies: for EC50: Leishmania infantum, 24 h at 26 °C, read-out: EC50 promastigotes. How it is done: as §1, §2
For assay [4], the system named is THP-1 monocyte-derived macrophages. Briefly: Cytotoxicity in THP-1 monocyte-derived macrophages (LDH activity). In kind it is cell-based, human. The following applies: LDH activity. The procedure:
THP-1 cells were grown in RPMI-1640 medium (Gibco, Leiden, The Netherlands) supplemented with 10% heat-inactivated FCS, antibiotics, 10 mM HEPES, 2 mM glutamine, and 1 mM sodium pyruvate, pH 7.2, at 37 °C and 5% CO2.
as §6
Cytotoxicity of THP-1 infected macrophages was determined using an in-house developed lactate dehydrogenase (LDH) activity assay. LDH activity assays from the remaining cell lysates (100 μL/well) were carried out at 37 °C in 250 μL of Tris/HCl buffer (pH 8.9, 50 mM) containing DL-lactate (840 mM), NAD^+ (450 μM), 1-methoxyphenazine methosulfate (45 μM), and nitro blue tetrazolium chloride (40 μM). The color intensity of the generated formazan dye was monitored at 570 nm using an EnSpire Multimode Plate Reader (PerkinElmer, Waltham, MA). CC50 values were calculated using a nonlinear regression model with GraFit 6 software (Erithacus, Horley, Surrey, U.K.).

Setting [5] is: Leishmania infantum, THP-1, 72 h, amastigote-infected THP-1 macrophages, 72 h, read-out: EC50 intracellular amastigotes.

Read-outs that look alike come from different tables or passages of the source. Bounds are passed on as bounds.

With `NCCCCc1cn(-c2ccc(-c3nc(CCc4ccccc4)cs3)c(OCCN3CCNC3=O)c2)nn1` [12a, 1-(2-(5-(4-(4-Ammoniumbutyl)-1H-1,2,3-triazol-1-yl)-2-(4-phenethylthiazol-2-yl)phenoxy)ethyl)imidazolidin-2-one 2,2,2-Trifluoroacetate], the EC50 (in general, the concentration at which the effect is half-maximal) in assay [1] came to 13.9 ± 0.6 µM; with HepG2 cells, 20.3 ± 2.4 µM; in assay [2] (Leishmania infantum, THP-1, 72 h, read-out: EC50 intracellular amastigotes, amastigote-infected THP-1 macrophages, 72 h), 32.4 ± 6.7 µM; in assay [3], 16.4 ± 0.9 µM; in assay [4] (Homo sapiens, THP-1), 45 ± 3.1 µM. Moreover, the IC50 (as a rule, the midpoint of a concentration-inhibition curve) at TcoTryR is 11 ± 1.3 µM; at TbTryR, 13.3 ± 1.9 µM.

As to `C[C@@H]1[C@H](O)[C@@H](C)/C=C/C=C/C=C/C=C/C=C/C=C/C=C/[C@H](O[C@@H]2O[C@H](C)[C@@H](O)[C@H](N)[C@@H]2O)C[C@@H]2O[C@](O)(C[C@@H](O)C[C@@H](O)[C@H](O)CC[C@@H](O)C[C@@H](O)CC(=O)O[C@H]1C)C[C@H](O)[C@H]2C(=O)O` [amphotericin B, reference compound], the EC50 in assay [2] (setting [5]) was 0.07 ± 0.01 µM; in assay [4] (Homo sapiens, THP-1), > 5 µM.

Take `CCCCCCCCCCCCCCCCOP(=O)([O-])OCC[N+](C)(C)C` [miltefosine, reference compound]: the “SIa (ratio of EC50 against human cells to EC50 against amastigotes)” value in assay [1] (HepG2 / axenic amastigotes) was > 37.5. Besides, the concentration giving a half-maximal response (EC50) in assay [1] is 2 ± 0.1 µM; with HepG2 cells, > 75 µM; in assay [2] (setting [5]) it was 0.6 ± 0.1 µM; in assay [3], 47.6 ± 0.6 µM; in assay [4] (Homo sapiens, THP-1), > 25 µM. Further, the “SIp (ratio of EC50 against human cells to EC50 against promastigotes)” value in assay [3] (HepG2 / promastigotes) was > 1.6.

As to edelfosine [reference compound], the “SI (intracellular amastigotes)” value in assay [2] (THP-1 / intracellular amastigotes) is recorded as 1.4. Also, the EC50 in assay [2] (amastigote-infected THP-1 macrophages, 72 h, read-out: EC50 intracellular amastigotes) worked out at 2.5 ± 0.02 µM; in assay [4], 3.5 ± 0.3 µM.
